Source: patent US6841682B2, “Heterocycles useful in the treatment of benign prostatic hyperplasia” (Janseen Pharmaceutica N.V., priority 1997, dated 2005)

Legend:
rat prostatic tissue = assay: norepinephrine-induced contractile response of rat prostatic tissue; type: cell-based; settings: rat prostate strips, 32° C., pH 7.4, read-out: IC50, inhibition of contractile response in prostate tissue
From the text: The contractile responses of rat prostatic tissue and rat aorta tissues were examined in the presence and absence of antagonist compounds. As an indication of the selectivity of antagonism, test compound effects on vascular smooth muscle contractility (α1b-AR and α1d-AR) were compared to the effects on prostatic smooth muscle (α1a-AR). Strips of prostatic tissue and aortic rings were obtained from Long Evans derived male rats weighing 275 grams and sacrificed by cervical dislocation. The prostate tissue was placed under 1 gram tension in a 10 ml bath containing phosphate buffered saline pH 7.4 at 32° C. and isometric tension was measured with force transducers. The aortic tissue was placed under 2 grams tension in a 10 ml bath containing phosphate buffered saline pH 7.4 at 37° C. The ability of test compound to reduce the norepinephrine-induced contractile response by 50% (IC50) was determined.

α1d-AR = target: T1, α1d-AR (Homo sapiens, UniProt P25100); assay: radioligand ([125I]-HEAT) receptor binding assay, COS cell membranes, α1d-AR; settings: Tables A-J, [125I]-HEAT 50 pM
T1 construct: expressed in transfected cells; host or cells: COS cells (pcDNA3 vector, DEAE-dextran transient transfection); membrane preparation
T1 sequence (P25100 1-572): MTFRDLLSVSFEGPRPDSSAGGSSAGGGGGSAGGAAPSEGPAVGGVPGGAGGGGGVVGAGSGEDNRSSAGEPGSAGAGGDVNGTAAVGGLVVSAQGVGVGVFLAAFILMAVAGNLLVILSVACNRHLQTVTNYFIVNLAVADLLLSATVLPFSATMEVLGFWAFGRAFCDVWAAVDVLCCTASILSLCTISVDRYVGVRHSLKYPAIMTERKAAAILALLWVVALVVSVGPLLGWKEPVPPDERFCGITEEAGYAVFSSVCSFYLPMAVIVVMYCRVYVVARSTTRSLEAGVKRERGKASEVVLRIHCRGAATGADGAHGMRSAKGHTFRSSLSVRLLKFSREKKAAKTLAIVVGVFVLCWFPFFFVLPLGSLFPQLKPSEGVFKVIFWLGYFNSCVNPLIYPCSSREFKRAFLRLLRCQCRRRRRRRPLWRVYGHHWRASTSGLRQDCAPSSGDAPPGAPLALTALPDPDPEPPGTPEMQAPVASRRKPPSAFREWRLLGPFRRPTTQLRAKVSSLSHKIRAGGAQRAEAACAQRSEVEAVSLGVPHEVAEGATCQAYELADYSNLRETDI
From the text: (§1) The first assay tested the ability of compounds of Formula I to bind to membrane bound receptors α1a-AR, α1b-AR and α1d-AR.
(§2) The DNA sequences of the three cloned human α1-AR subtypes have been published. […] We used published DNA sequence information to design-primers for use in RT-PCR amplification of each subtype to obtain cloned cDNAs. Human poly A+ RNA was obtained from commercially available sources and included hippocampus and prostate samples, sources which have been cited in the literature. For the primary screen a radio ligand binding assay was used which employed membrane preparations from cells expressing the individual cloned receptor cDNAs. Radiolabeled ligands with binding activity on all three subtypes (non-selective) are commercially available ([125I]-HEAT, [3H]-prazosin).
(§3) Each α1 receptor subtype was cloned from poly A+ RNA by the standard method of reverse transcription-polymerase chain reaction (RT-PCR). The following sources of polyA+ RNA were used for the cloning of the al receptor subtypes: α1a-AR, human hippocampus and prostate, α1b-AR, human hippocampus, α1d-AR, human hippocampus. The resulting cDNAs were cloned into the pcDNA3 mammalian expression vector (Invitrogen Corp., San Diego Calif.). Each DNA was sequenced for verification and to detect any possible mutations introduced during the amplification process. Any deviation in sequence from the published consensus for each receptor subtype was corrected by site-directed mutagenesis.
(§4) The three α1-AR subtypes (a, b, d) were transfected into COS cells using a standard DEAE-dextran procedure with a chloroquine shock. In this procedure, each tissue culture dish (100 mm) was inoculated with 3.5×10^6 cells and transfected with 10 μg of DNA. Approximately 72 hours post-transfection, the cells were harvested and COS membranes were prepared. Transfected COS cells from 25 plates (100 mm) were scraped and suspended in 15 mL of TE buffer (50 mM Tris-HCl, 5 mM EDTA, pH7.4). The suspension was disrupted with a homogenizer. It was then centrifuged at 1000×g for 10 minutes at 4° C. The supernatant was centrifuged at 34,500×g for 20 minutes at 4° C. The pellet was resuspended in 5 mL TNE buffer (50 mM Tris-HCl, 5 mM EDTA, 150 mM NaCl, pH7.4). The resulting membrane preparation was aliquoted and stored at −70° C. The protein concentration was determined following membrane solubilization with TritonX-100.
(§5) The ability of each compound to bind to each of the α1-AR subtypes was assessed in a receptor binding assay. [125I]-HEAT, a non-selective α1-AR ligand, was used as the radiolabeled ligand. Each well of a 96-well plate received: 140 μL TNE, 25 μL [125I]-HEAT diluted in TNE (50,000 cpm; final concentration 50 pM), 10 μL test compound diluted in DMSO (final concentration 1 pM-10 μM), […] COS cell membrane preparation expressing one of the three α1-AR subtypes (0.05-0.2 mg membrane protein). The plate was incubated for 1 hour at room temperature and the reaction mixtures were filtered through a Packard GF/C Unifilter filter plate. The filter plate was dried for 1 hour in a vacuum oven. Scintillation fluid ([…]) was added to each well, and the filter plate was counted in a Packard Topcount scintillation counter. Data was analyzed using GraphPad Prism software.
(§6) Tables A-J list the IC50 values expressed in nanomolar concentration for select compounds of the invention in all receptor subtypes.

α1b-AR = target: T2, α1b-AR (Homo sapiens, UniProt P35368); assay: radioligand ([125I]-HEAT) receptor binding assay, COS cell membranes, α1b-AR; settings: Tables A-J; [125I]-HEAT 50 pM, COS membranes; read-out: α1b IC50
T2 construct: expressed in transfected cells; host or cells: COS cells (pcDNA3 vector, DEAE-dextran transient transfection); membrane preparation
T2 sequence (P35368 1-520): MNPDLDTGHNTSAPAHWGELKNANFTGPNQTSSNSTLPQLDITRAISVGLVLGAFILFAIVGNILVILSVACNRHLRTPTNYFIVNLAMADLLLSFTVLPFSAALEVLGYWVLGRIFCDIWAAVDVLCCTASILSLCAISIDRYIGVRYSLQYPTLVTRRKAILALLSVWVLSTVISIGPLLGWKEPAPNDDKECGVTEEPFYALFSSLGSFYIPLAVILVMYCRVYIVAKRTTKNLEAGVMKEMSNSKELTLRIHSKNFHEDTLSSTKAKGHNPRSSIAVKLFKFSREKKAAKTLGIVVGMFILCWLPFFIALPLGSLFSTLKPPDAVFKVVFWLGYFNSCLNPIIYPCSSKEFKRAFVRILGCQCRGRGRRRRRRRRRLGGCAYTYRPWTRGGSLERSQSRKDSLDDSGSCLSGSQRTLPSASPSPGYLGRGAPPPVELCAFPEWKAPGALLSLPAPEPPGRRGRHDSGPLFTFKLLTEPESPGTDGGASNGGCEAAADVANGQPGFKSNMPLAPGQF
From the text: as §1, §2, §3, §4, §5, §6

CC(C)Oc1ccccc1N1CCN(Cc2ncc(CN3CCCCC3=O)s2)CC1 [Compound 16]
IC50 (rat prostatic tissue): 380 nM | IC50 (α1d-AR): 211 nM | IC50 (α1b-AR): 8500 nM

CC(C)Oc1ccccc1N1CCN(Cc2cc(CN3CCCCC3=O)n[nH]2)CC1 [Compound 3]
IC50 (rat prostatic tissue): 1300 nM | IC50 (α1d-AR): 177 nM | IC50 (α1b-AR): 3920 nM
